From patent US20210254272A1, “TEXTILES HAVING ANTIMICROBIAL PROPERTIES” (Livinguard AG, priority 2015, published 2021)

Assay: Leaching test: 100 g fabric soaked in 10 liters stagnant distilled water, 3 days (72 hours)
Type: physicochemical
Conditions: for Leaching of active ingredients: exhaust 80° C. 60 min, cured 180° C. 2 min, post wash
Experimental: (§1) The test procedure for leaching was as follows: 100 g (grams) of fabric as well as control fabrics were soaked in 10 liters of stagnant distilled water in a closed wide mouth jar. After 3 days (72 hours), the water samples were tested for leached substances as per standard analytical methods.
as §1, with “methods. A weight of 100 g fabric was chosen because in the preferred embodiment of the water filter as described further below, each filter comprises a strip of fabric with 210 g/m^2, 3 meters long and 0.16 meters wide, which corresponds to 100 g of fabric.” for “methods.”

## Silver
0.2% each in mixture (o.w.f), exhaust 80° C., 60 min, curing 180° C., 2 min, unwashed
  Leaching of active ingredients (in ppm): 7 ppm
0.5% each in mixture (o.w.f), exhaust 80° C., 60 min, curing 180° C., 2 min, unwashed
  Leaching of active ingredients (in ppm): 11 ppm
1.0% each in mixture (o.w.f), exhaust 80° C., 60 min, curing 180° C., 2 min, unwashed
  Leaching of active ingredients (in ppm): 18 ppm
Exhaust + Wash + pad + Wash, exhaust 0.1% o.w.f. each in mixture, 1 gm/liter pad
  Leeching in ppm: 0.3 ppm
Exhaust + Wash + pad + Wash, exhaust 0.1% o.w.f. each in mixture, 5 gm/liter pad
  Leeching in ppm: 0.5 ppm
Exhaust + Wash + pad + Wash, exhaust 0.1% o.w.f. each in mixture, 10 gm/liter pad
  Leeching in ppm: 0.6 ppm
Exhaust + Wash + pad + Wash, exhaust 0.25% o.w.f. each in mixture, 1 gm/liter pad
  Leeching in ppm: 3 ppm
Exhaust + Wash + pad + Wash, exhaust 0.25% o.w.f. each in mixture, 5 gm/liter pad
  Leeching in ppm: 7 ppm
Exhaust + Wash + pad + Wash, exhaust 0.25% o.w.f. each in mixture, 10 gm/liter pad
  Leeching in ppm: 16 ppm
Exhaust + Wash + pad + Wash, exhaust 0.5 (% o.w.f) each in mixture, 1 gm/liter pad
  Leeching in ppm: 8 ppm
Exhaust + Wash + pad + Wash, exhaust 0.5 (% o.w.f) each in mixture, 5 gm/liter pad
  Leeching in ppm: 14 ppm
Exhaust + Wash + pad + Wash, exhaust 0.5 (% o.w.f) each in mixture, 10 gm/liter pad
  Leeching in ppm: 22 ppm
Exhaust + Wash + pad + Wash, exhaust 1.0% o.w.f. each in mixture, 1 gm/liter pad
  Leeching in ppm: 14 ppm
Exhaust + Wash + pad + Wash, exhaust 1.0% o.w.f. each in mixture, 5 gm/liter pad
  Leeching in ppm: 23 ppm
Exhaust + Wash + pad + Wash, exhaust 1.0% o.w.f. each in mixture, 10 gm/liter pad
  Leeching in ppm: 28 ppm
Exhaust + pad + Wash, exhaust 0.1% o.w.f. each in mixture, 1 gm/liter pad
  Leeching in ppm: 145 ppm
Exhaust + pad + Wash, exhaust 0.1% o.w.f. each in mixture, 5 gm/liter pad
  Leeching in ppm: 235 ppm
Exhaust + pad + Wash, exhaust 0.1% o.w.f. each in mixture, 10 gm/liter pad
  Leeching in ppm: 254 ppm
Exhaust + pad + Wash, exhaust 0.25% o.w.f. each in mixture, 1 gm/liter pad
  Leeching in ppm: 223 ppm
Exhaust + pad + Wash, exhaust 0.25% o.w.f. each in mixture, 5 gm/liter pad
  Leeching in ppm: 257 ppm
Exhaust + pad + Wash, exhaust 0.25% o.w.f. each in mixture, 10 gm/liter pad
  Leeching in ppm: 534 ppm
Exhaust + pad + Wash, exhaust 0.5 (% o.w.f) each in mixture, 1 gm/liter pad
  Leeching in ppm: 456 ppm
Exhaust + pad + Wash, exhaust 0.5 (% o.w.f) each in mixture, 5 gm/liter pad
  Leeching in ppm: 573 ppm
Exhaust + pad + Wash, exhaust 0.5 (% o.w.f) each in mixture, 10 gm/liter pad
  Leeching in ppm: 645 ppm
Exhaust + pad + Wash, exhaust 1.0% o.w.f. each in mixture, 1 gm/liter pad
  Leeching in ppm: 534 ppm
Exhaust + pad + Wash, exhaust 1.0% o.w.f. each in mixture, 5 gm/liter pad
  Leeching in ppm: 654 ppm
Exhaust + pad + Wash, exhaust 1.0% o.w.f. each in mixture, 10 gm/liter pad
  Leeching in ppm: 849 ppm
Exhaust + pad, exhaust 0.1% o.w.f. each in mixture, 1 gm/liter pad
  Leeching in ppm: 208 ppm
Exhaust + pad, exhaust 0.1% o.w.f. each in mixture, 5 gm/liter pad
  Leeching in ppm: 298 ppm
Exhaust + pad, exhaust 0.1% o.w.f. each in mixture, 10 gm/liter pad
  Leeching in ppm: 362 ppm
Exhaust + pad, exhaust 0.25% o.w.f. each in mixture, 1 gm/liter pad
  Leeching in ppm: 320 ppm
Exhaust + pad, exhaust 0.25% o.w.f. each in mixture, 5 gm/liter pad
  Leeching in ppm: 321 ppm
Exhaust + pad, exhaust 0.25% o.w.f. each in mixture, 10 gm/liter pad
  Leeching in ppm: 387 ppm
Exhaust + pad, exhaust 0.5 (% o.w.f) each in mixture, 1 gm/liter pad
  Leeching in ppm: 398 ppm
Exhaust + pad, exhaust 0.5 (% o.w.f) each in mixture, 5 gm/liter pad
  Leeching in ppm: 453 ppm
Exhaust + pad, exhaust 0.5 (% o.w.f) each in mixture, 10 gm/liter pad
  Leeching in ppm: 801 ppm
Exhaust + pad, exhaust 1.0% o.w.f. each in mixture, 1 gm/liter pad
  Leeching in ppm: 595 ppm
Exhaust + pad, exhaust 1.0% o.w.f. each in mixture, 5 gm/liter pad
  Leeching in ppm: 749 ppm
Exhaust + pad, exhaust 1.0% o.w.f. each in mixture, 10 gm/liter pad
  Leeching in ppm: 1234 ppm
Exhaust +Wash + pad, exhaust 0.1% o.w.f. each in mixture, 1 gm/liter pad
  Leeching in ppm: 86 ppm
Exhaust +Wash + pad, exhaust 0.1% o.w.f. each in mixture, 5 gm/liter pad
  Leeching in ppm: 164 ppm
Exhaust +Wash + pad, exhaust 0.1% o.w.f. each in mixture, 10 gm/liter pad
  Leeching in ppm: 254 ppm
Exhaust +Wash + pad, exhaust 0.25% o.w.f. each in mixture, 1 gm/liter pad
  Leeching in ppm: 196 ppm
Exhaust +Wash + pad, exhaust 0.25% o.w.f. each in mixture, 5 gm/liter pad
  Leeching in ppm: 212 ppm
Exhaust +Wash + pad, exhaust 0.25% o.w.f. each in mixture, 10 gm/liter pad
  Leeching in ppm: 324 ppm
Exhaust +Wash + pad, exhaust 0.5 (% o.w.f) each in mixture, 1 gm/liter pad
  Leeching in ppm: 375 ppm
Exhaust +Wash + pad, exhaust 0.5 (% o.w.f) each in mixture, 5 gm/liter pad
  Leeching in ppm: 435 ppm
Exhaust +Wash + pad, exhaust 0.5 (% o.w.f) each in mixture, 10 gm/liter pad
  Leeching in ppm: 578 ppm
Exhaust +Wash + pad, exhaust 1.0% o.w.f. each in mixture, 1 gm/liter pad
  Leeching in ppm: 475 ppm
Exhaust +Wash + pad, exhaust 1.0% o.w.f. each in mixture, 5 gm/liter pad
  Leeching in ppm: 546 ppm
Exhaust +Wash + pad, exhaust 1.0% o.w.f. each in mixture, 10 gm/liter pad
  Leeching in ppm: 656 ppm
Exhaust 60° C., solution dosage 1% o.w.f, process time 60 min
  Leaching of active ingredients (in ppm): 21 ppm
Exhaust 60° C., solution dosage 1% o.w.f, process time 90 min
  Leaching of active ingredients (in ppm): 13 ppm
Exhaust 60° C., solution dosage 1% o.w.f, process time 120 min
  Leaching of active ingredients (in ppm): 13 ppm
Exhaust 60° C., solution dosage 1% o.w.f, process time 180 min
  Leaching of active ingredients (in ppm): 12 ppm
Exhaust 60° C., solution dosage 1% o.w.f, process time 240 min
  Leaching of active ingredients (in ppm): 15 ppm
Mixture 0.2% o.w.f. each
  Leaching of active ingredients: 0.3 ppm
Mixture 0.5% o.w.f. each
  Leaching of active ingredients: 0.5 ppm
Mixture 1% o.w.f. each
  Leaching of active ingredients: 0.9 ppm
Exhaust 80° C., 1% o.w.f, 60 min, curing 170° C., curing dwell time 0.5 min
  Leaching of active ingredients (in ppm): 28 ppm
Exhaust 80° C., 1% o.w.f, 60 min, curing 170° C., curing dwell time 1.0 min
  Leaching of active ingredients (in ppm): 24 ppm
Exhaust 80° C., 1% o.w.f, 60 min, curing 170° C., curing dwell time 1.5 min
  Leaching of active ingredients (in ppm): 21 ppm
Exhaust 80° C., 1% o.w.f, 60 min, curing 170° C., curing dwell time 2.0 min
  Leaching of active ingredients (in ppm): 13 ppm
Exhaust 80° C., 1% o.w.f, 60 min, curing 170° C., curing dwell time 2.5 min
  Leaching of active ingredients (in ppm): 19 ppm
Exhaust 80° C., 1% o.w.f, 60 min, curing 170° C., curing dwell time 3.0 min
  Leaching of active ingredients (in ppm): 19 ppm
Exhaust 80° C., 1% o.w.f, 60 min, curing 180° C., curing dwell time 0.5 min
  Leaching of active ingredients (in ppm): 21 ppm
Exhaust 80° C., 1% o.w.f, 60 min, curing 180° C., curing dwell time 1.0 min
  Leaching of active ingredients (in ppm): 13 ppm
Exhaust 80° C., 1% o.w.f, 60 min, curing 180° C., curing dwell time 1.5 min
  Leaching of active ingredients (in ppm): 13 ppm
Exhaust 80° C., 1% o.w.f, 60 min, curing 180° C., curing dwell time 2.0 min
  Leaching of active ingredients (in ppm): 4 ppm
Exhaust 80° C., 1% o.w.f, 60 min, curing 180° C., curing dwell time 2.5 min
  Leaching of active ingredients (in ppm): 12 ppm
Exhaust 80° C., 1% o.w.f, 60 min, curing 180° C., curing dwell time 3.0 min
  Leaching of active ingredients (in ppm): 12 ppm
Exhaust 80° C., 1% o.w.f, 60 min, curing dwell time at 190° C. (title): 0.5 min
  Leaching of active ingredients (in ppm): 18 ppm
Exhaust 80° C., 1% o.w.f, 60 min, curing dwell time at 190° C. (title): 1.0 min
  Leaching of active ingredients (in ppm): 12 ppm
Exhaust 80° C., 1% o.w.f, 60 min, curing dwell time at 190° C. (title): 1.5 min
  Leaching of active ingredients (in ppm): 10 ppm
Exhaust 80° C., 1% o.w.f, 60 min, curing dwell time at 190° C. (title): 2.0 min
  Leaching of active ingredients (in ppm): 10 ppm
Exhaust 80° C., 1% o.w.f, 60 min, curing dwell time at 190° C. (title): 2.5 min
  Leaching of active ingredients (in ppm): 24 ppm
Exhaust 80° C., 1% o.w.f, 60 min, curing dwell time at 190° C. (title): 3.0 min
  Leaching of active ingredients (in ppm): 35 ppm
